Measurements from PubChem BioAssay (NCI).
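All cell lines were grown in 96-well plates and treated with compound for 48 hours. The concentration for 50% growth inhibition is given as GI50. TGI denotes the concentration required for complete inhibition of growth.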

Tests used:
Test in all cases: NCI anticancer screen, dose series, 48 h
A549 NSCLC = system: A549 NSCLC
HT29 colon = system: HT29 colon
HS 578T breast = system: HS 578T breast
SR leukemia = system: SR leukemia
CAKI-1 renal = system: CAKI-1 renal
IGROV1 ovarian = system: IGROV1 ovarian
SNB-19 CNS = system: SNB-19 CNS
T-47D breast = system: T-47D breast
HOP-62 NSCLC = system: HOP-62 NSCLC
PC-3 prostate = system: PC-3 prostate

SMILES	GI50 (A549 NSCLC) [µM]	TGI (A549 NSCLC) [µM]	GI50 (HT29 colon) [µM]	TGI (HT29 colon) [µM]	GI50 (HS 578T breast) [µM]	TGI (HS 578T breast) [µM]	GI50 (SR leukemia) [µM]	TGI (SR leukemia) [µM]	GI50 (CAKI-1 renal) [µM]	TGI (CAKI-1 renal) [µM]	GI50 (IGROV1 ovarian) [µM]	TGI (IGROV1 ovarian) [µM]	GI50 (SNB-19 CNS) [µM]	TGI (SNB-19 CNS) [µM]	GI50 (T-47D breast) [µM]	TGI (T-47D breast) [µM]	GI50 (HOP-62 NSCLC) [µM]	TGI (HOP-62 NSCLC) [µM]	GI50 (PC-3 prostate) [µM]	TGI (PC-3 prostate) [µM]
O=C(N/N=C/c1ccncc1)c1ccc(C(F)(F)F)nc1Nc1cccc(C(F)(F)F)c1	3.12	10.9	3.43	11	2.02	8.51	0.271	1.74	1.48	4.97	1.41	4.26	2.67	11.8	1.78	10.5	2	7.29	–	–
O=c1c2cc(Br)ccc2[nH]c(=S)n1-c1ccccc1	–	> 100	–	> 100	–	–	–	–	–	> 100	–	> 100	–	> 100	–	–	–	> 100	–	–
CC(=O)Nc1cc(C(c2ccccc2)c2ccccc2)cc(C(c2ccccc2)c2ccccc2)c1C	4.95	> 100	8.26	> 100	28	> 100	–	–	> 100	> 100	32.5	> 100	> 100	> 100	3.18	> 100	> 100	> 100	4.13	> 100
Cc1ccc2c(n1)C(=O)C(Cl)=C(Nc1ccc(N3CCN(C)CC3)cc1)C2=O	14.6	30	2.19	4.92	2.47	7.49	2.78	9.06	1.68	3.08	1.87	3.6	9.46	21.7	–	–	3.63	14.7	1.57	3.16
Cc1cc(C(=O)N2CCN(C)CC2)c2c(=O)n(-c3ccccc3)c(=O)n(CC(O)CN3CCN(c4ncccn4)CC3)c2n1 (stereo not drawn)	–	–	> 100	> 100	> 100	> 100	9.01	> 100	> 100	> 100	> 100	> 100	> 100	> 100	> 100	> 100	> 100	> 100	–	–
Cc1nn2c(=O)n(-c3cccc(-n4nnc5c(-c6ccccc6)c(C)nn5c4=O)c3C)nnc2c1-c1ccccc1	–	> 100	–	> 100	–	–	–	55.8	–	> 100	–	> 100	–	> 100	–	–	–	> 100	–	–
O=C1NC(=O)C(N2CCc3ccccc32)=C1c1ccc(Cl)cc1	> 25	> 25	> 25	> 25	> 25	> 25	–	–	> 25	> 25	> 25	> 25	> 25	> 25	> 25	> 25	> 25	> 25	> 22.8	> 25
CC(C)(C)C1CCC(CI)(N=[N+]=[N-])CC1 (stereo not drawn)	–	> 100	–	> 100	–	–	–	> 100	–	> 100	–	> 100	–	> 100	–	–	–	> 100	–	–
CN(C)CCCNC(=O)c1cccc2nc3ccccc3nc12	–	> 78.7	–	36.5	–	–	–	> 100	–	> 78.2	–	> 82.2	–	> 100	–	–	–	45.5	–	–
CCN1CCN(CC(=O)Nc2nc3ccc(NCc4ccc(C)cc4)cc3s2)CC1	2.29	8.61	1.27	3.48	5.12	15.9	1.8	8.37	3.48	10.5	6.14	14.1	5.98	13.5	1.6	7.29	2.02	8.03	–	–
Cc1cc2oc(=O)c(Cl)c(Cl)c2c(C)c1Cl	–	37.3	–	22.8	–	9.64	–	–	–	15.7	–	15.8	–	24.6	–	40.2	–	66	–	23.6
O=C1C=CC(=O)c2c1cc1ccccc1c2O	–	35.3	–	24	–	38.9	–	–	–	12.7	–	15.6	–	35.9	–	3.49	–	26.6	–	19.1
COc1ccc(C2c3cc4c(c(OC)c3CC3OCC(=O)C32)OCO4)cc1OC (stereo not drawn)	< 0.01	> 100	–	0.104	–	46.4	–	< 0.01	< 0.01	11.3	–	> 100	< 0.01	> 100	–	–	–	–	< 0.01	> 100
CCOc1ccc(/C=N\N2C(=O)c3ccccc3C2=O)cc1	–	> 100	–	> 100	–	–	–	> 100	–	> 100	–	> 100	–	> 100	–	–	–	> 100	–	–
C/C(=C\CCc1ccsc1)CC/C=C(\C)CCCN1CCN(CCO)CC1	3.05	13.3	2.04	5.01	2.7	8.07	1.93	4.71	4.26	16.4	4.68	18.9	4.4	21	2.03	5.09	2.6	6.4	–	–
COC(=O)[C@H]1CC(=O)C=C2CCCC21 (stereo partly drawn)	–	> 100	–	> 100	–	–	–	–	–	> 100	–	> 100	–	> 100	–	–	–	> 100	–	–

SMILES	GI50 (A549 NSCLC) [µM]	TGI (A549 NSCLC) [µM]	GI50 (HT29 colon) [µM]	TGI (HT29 colon) [µM]	GI50 (HS 578T breast) [µM]	TGI (HS 578T breast) [µM]	GI50 (SR leukemia) [µM]	TGI (SR leukemia) [µM]	GI50 (CAKI-1 renal) [µM]	TGI (CAKI-1 renal) [µM]	GI50 (IGROV1 ovarian) [µM]	TGI (IGROV1 ovarian) [µM]	GI50 (SNB-19 CNS) [µM]	TGI (SNB-19 CNS) [µM]	GI50 (T-47D breast) [µM]	TGI (T-47D breast) [µM]	GI50 (HOP-62 NSCLC) [µM]	TGI (HOP-62 NSCLC) [µM]	GI50 (PC-3 prostate) [µM]	TGI (PC-3 prostate) [µM]
C=C(CS(=O)(=O)c1ccccc1)C(=O)OCC	–	37.1	–	23.3	–	–	–	–	–	33.9	–	38.8	–	37.9	–	–	–	–	–	–
CC1(C)C(=O)CCC(=O)C(C)(C)C2=CC=C(O2)C(C)(C)C(=O)CCC(=O)C(C)(C)C2=CC=C1O2	–	> 100	–	> 100	–	–	–	> 100	–	> 100	–	> 100	–	> 100	–	–	–	> 100	–	–
COc1ccc2oc(-c3cc4cc(OC)ccc4o3)cc2c1	–	> 100	–	–	–	–	–	–	–	> 100	–	> 100	–	> 100	–	–	–	> 100	–	–
CC(C)(C)C1CCP(=O)(c2ccccc2)CC1 (stereo not drawn)	–	> 100	–	> 100	–	–	–	> 100	–	–	–	> 100	–	> 100	–	–	–	> 100	–	–
COc1cc(C2CC(=O)c3c(C)nn(-c4nc5ccccc5[nH]4)c3C2)cc(OC)c1OC (stereo not drawn)	–	–	> 100	> 100	–	–	> 100	> 100	> 100	> 100	–	–	–	–	–	–	3.61	> 100	> 100	> 100
Cc1ccc(C)c(NC(=O)C(=O)CC(=O)c2cccc3ccccc23)c1	–	> 100	–	> 100	–	–	–	> 100	–	> 100	–	> 100	–	> 100	–	–	–	> 100	–	–
C=C1C(=O)O[C@H]2[C@H]1CC/C(COC(=O)c1cccc3ccccc13)=C\CC[C@@]1(C)O[C@@H]21	2.12	5.4	0.696	2.42	1.98	6.01	0.363	> 100	–	–	1.03	2.79	1.57	3.19	–	–	1.76	3.68	1.57	3.14
c1cc2ccc3cc2cc1CNCCOCCNCc1ccc2ccc(cc2c1)CNCCOCCNC3	> 100	> 100	> 100	> 100	> 100	> 100	> 100	> 100	> 100	> 100	> 100	> 100	> 100	> 100	> 100	> 100	> 100	> 100	–	–
CCOC(=O)C/C(N)=C(\C#N)C(=O)OCC	–	> 100	–	> 100	–	–	–	> 100	–	> 100	–	> 100	–	> 100	–	–	–	–	–	–
CC1=C(C(=O)Nc2cccc(C(F)(F)F)c2)C(c2ccccc2F)C(C(=O)Nc2cccc(C(F)(F)F)c2)=C(C)N1	–	19.7	–	11.5	–	–	–	–	–	25	–	43.7	–	25.8	–	–	–	26.2	–	–
CN(C(=O)C12C3C4C1C1C2C3C41C(=O)N(C)C(C)(C)C)C(C)(C)C (stereo not drawn)	–	> 50	–	> 50	–	–	–	> 50	–	> 50	–	> 50	–	> 50	–	–	–	> 50	–	–
O=S1c2ccccc2N=C(c2ccc3ccccc3c2)CC1c1ccccc1F (stereo not drawn)	–	> 100	–	> 100	–	–	–	–	–	> 100	–	> 100	–	> 100	–	–	–	> 100	–	–
COc1ccc(/C=c2\sc3nnc(CCC(=O)Nc4cccc(C(F)(F)F)c4)n3c2=O)cc1	–	> 100	–	> 100	–	–	–	75.8	–	> 100	–	> 100	–	> 100	–	–	–	> 100	–	–
COC(=O)CSc1n[nH]c(-c2ccccc2)n1	–	> 100	–	> 100	–	–	–	43.5	–	> 100	–	> 100	–	> 100	–	–	–	> 100	–	–
COc1cc(-c2ccccc2)c(OC)cc1CCl	–	> 100	–	> 100	–	–	–	–	–	> 100	–	> 100	–	> 100	–	–	–	> 100	–	–
